Measurements published in patent US20260174875A1 (Novo Nordisk A/S, priority 2023, published 2026).
pEC50: −log10 of the molar value. Like-named read-outs stand apart in the source and are kept apart here. Numbered stars: 1 amine (or outer) side, 2 acyl side, 3 side chain; on linkers, the order of the positions; unused ones are H or OH. Square brackets hold non-standard residues; d marks the D form. Side chains are listed from the residue outwards. * marks the point of attachment. C20 diacid = O=C(O)CCCCCCCCCCCCCCCCCCC(=O)*; C18 diacid = O=C(O)CCCCCCCCCCCCCCCCC(=O)*; C16 diacid = O=C(O)CCCCCCCCCCCCCCC(=O)*; γGlu = O=C(O)[C@H](CCC(=O)[*:2])N[*:1]; AEEA = NCCOCCOCC(=O)O; Aib = CC(C)(N)C(=O)O

Experiments:
[1] = target: T1, human GIP receptor (hGIPR) (Homo sapiens, UniProt P48546); test: GIP receptor assay, method A (CRE-luciferase reporter, BHK cells); format: cell-based
T1 construct: expressed in transfected cells
T1 sequence (P48546 22-466): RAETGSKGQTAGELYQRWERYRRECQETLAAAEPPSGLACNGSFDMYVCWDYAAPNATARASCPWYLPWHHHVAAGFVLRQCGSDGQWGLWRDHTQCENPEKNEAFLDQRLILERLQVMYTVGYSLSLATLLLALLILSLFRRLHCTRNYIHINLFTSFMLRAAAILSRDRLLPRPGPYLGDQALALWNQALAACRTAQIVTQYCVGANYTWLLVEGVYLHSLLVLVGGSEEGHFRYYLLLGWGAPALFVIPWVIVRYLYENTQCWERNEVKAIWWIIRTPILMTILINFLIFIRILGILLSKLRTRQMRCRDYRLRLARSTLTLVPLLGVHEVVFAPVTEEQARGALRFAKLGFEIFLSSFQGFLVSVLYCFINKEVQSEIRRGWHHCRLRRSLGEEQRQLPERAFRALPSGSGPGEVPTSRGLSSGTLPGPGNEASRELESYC
Summary of the method: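 BHK cells co-expressing hGIPR and a CRE-luciferase reporter were stimulated for 3 h at 37 °C with a 7-point, 10-fold compound titration in duplicate. Buffer was DMEM, 10 mM HEPES, 1% ovalbumin, 0.1% Pluronic F-68, without HSA or with 1% (w/v) HSA. EC50 [pM] came from four-parameter logistic fits of luminescence.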

[2] = target: T2, human amylin receptor (hAMYR3) (Homo sapiens, UniProt O60896+P30988); test: Amylin receptor assay, method A (CRE-luciferase reporter, BHK cells); format: cell-based
T2 construct: host or cells: BHK cells (Hollex-1 line expressing hCTR(a) and CRE-Luc), further transfected with human RAMP3
T2 sequence (P30988 25-474): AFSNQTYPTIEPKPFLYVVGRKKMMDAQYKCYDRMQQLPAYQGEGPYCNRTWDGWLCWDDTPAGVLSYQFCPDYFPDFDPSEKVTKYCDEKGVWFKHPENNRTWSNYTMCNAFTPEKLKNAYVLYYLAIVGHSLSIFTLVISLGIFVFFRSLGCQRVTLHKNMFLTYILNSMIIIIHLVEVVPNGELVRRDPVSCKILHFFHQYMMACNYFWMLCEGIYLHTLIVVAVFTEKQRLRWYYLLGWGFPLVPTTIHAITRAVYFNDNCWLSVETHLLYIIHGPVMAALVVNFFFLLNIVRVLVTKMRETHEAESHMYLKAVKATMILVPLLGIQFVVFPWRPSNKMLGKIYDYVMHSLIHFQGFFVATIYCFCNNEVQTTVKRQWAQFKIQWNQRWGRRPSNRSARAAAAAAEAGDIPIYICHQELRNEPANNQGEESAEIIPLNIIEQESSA
T2 sequence (O60896 24-148): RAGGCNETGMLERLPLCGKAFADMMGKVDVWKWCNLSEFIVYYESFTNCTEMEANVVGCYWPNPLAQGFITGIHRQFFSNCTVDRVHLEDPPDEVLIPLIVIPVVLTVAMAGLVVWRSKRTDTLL

[3] = Chemical stability assessment in formulation (UPLC-UV-MS purity loss at 37° C.); format: physicochemical; settings: 8 mM phosphate buffer pH 7.4, 1 mg/mL, 2 weeks
Summary of the method: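 Degradation tracked by UPLC-UV-MS (formic acid/acetonitrile gradient) on samples drawn over 2 weeks at 37° C. Solutions were made at a 1 mg/mL target in 8 mM phosphate, pH 7.4, kept in sealed vials and frozen after sampling.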

[4] = hGIPR Potency, 1% HSA, EC50, method A, in the presence of 1% HSA
[5] = method A, absence of HSA, read-out: hGIPR Potency, no HSA, EC50
[6] = hAMYR3 Potency, 1% HSA, EC50, method A, in the presence of 1% HSA
[7] = method A, absence of HSA, read-out: hAMYR3 Potency, no HSA, EC50
[8] = hGIPR Potency, no HSA, EC50, method A, absence of HSA
[9] = hAMYR3 Potency, no HSA, EC50, method A, absence of HSA

Substance | pEC50 [1, 4] | pEC50 [1, 5] | pEC50 [2, 6] | pEC50 [2, 7] | Purity loss per week at 37° C. [3] [%] | pEC50 [1, 8] | pEC50 [2, 9]
Y[Aib]EGTFTSDYSILLEEQAAREFIEWLLAGGPSSGAGQAPGQAPGASHLSTAQTQRLSAELHRLK([AEEA-AEEA-γGlu-C18 diacid])TLPRTETGSGSP-NH2 [Compound 56] | 11.07 | 11.58 | 10.35 | 11.63 | 0.6 |  | 
Y[Aib]EGTFTSDYSILLEEQAAREFIEWLLAGGPSSGAGQAPGQAPGASHLSTAQTQRLSAELHK([AEEA-AEEA-γGlu-C20 diacid])LATLPRTETGSGSP-NH2 [Compound 115] |  |  |  |  | 1.1 |  | 
H[Aib]HGTFTSDYSILLEEQAAREFIEWLLAGGPSK([AEEA-AEEA-γGlu-C16 diacid])GAPPPSGGGEASHLSTAQTARLSAELHRLADLPRTETGSGSP-NH2 [Compound 61] | 10.80 |  | 10.51 |  | 2.0 | 11.89 | 11.53
Y[Aib]EGTFTSDYSILLEEQAAREFIEWLLAGGPSK([AEEA-AEEA-γGlu-C18 diacid])GEASHLSTAQTARLSAELHELATLPRTETGSGSP-NH2 [Compound 35] |  | 11.71 |  | 11.38 | 0.3 |  | 
H[Aib]HGTFTSDYSILLEEQAAREFIEWLLAGGPSK([AEEA-AEEA-γGlu-C16 diacid])GEASQLSTAALGRLSAELHRLADLPRTETGSGSP-NH2 [Compound 62] | 10.33 |  | 10.54 |  | 3.0 | 11.65 | 11.47
Y[Aib]EGTFTSDYSILLEEQAAREFIEWLLAGGPSSGAGQAPGQAPGASHLSTAQTQRLSAELHRLATLPK([AEEA-AEEA-γGlu-C18 diacid])TETGSGSP-NH2 [Compound 57] | 11.23 | 11.70 | 10.07 | 11.52 | 0.2 |  | 
Y[Aib]EGTFTSDYSILLEEQAAREFIEWLLAGGPSSGAPPPSGGGEASHLSTAQTQRLSAK([AEEA-AEEA-γGlu-C20 diacid])LHRLATLPRTETGSGSP-NH2 [Compound 110] | 10.53 | 11.10 | 10.03 | 11.49 |  |  | 
Y[Aib]EGTFTSDYSILLEEQAAREFIEWLLAGGPSSGAGQAPGQAPGASHLSTAQTQRLSAELHK([AEEA-AEEA-γGlu-C18 diacid])LATLPRTETGSGSP-NH2 [compound 52] | 11.17 | 11.74 | 9.93 | 11.55 |  |  | 
Y[Aib]EGTFTSDYSILLEEQAAREFIEWLLAGGPSK([AEEA-AEEA-γGlu-C18 diacid])GEASELSTAALGRLSAELHELATLPRTETGSGSP-NH2 [Compound 26] | 9.25 | 11.76 | 9.46 | 10.93 |  |  | 
Y[Aib]EGTFTSDYSILLEEQAAREFIEWLLAGGPSK([AEEA-AEEA-γGlu-C16 diacid])GAPPPSGGGEASELSTAALGRLSAELHELATLPRTETGSGSP-NH2 [compound 10] | 10.37 | 11.68 | 9.76 | 11.17 |  |  | 
Y[Aib]EGTFTSDYSILLEEQAAREFIEWLLAGGPSSGAGQAPGQAPGASHLSTAALGRLSAELHK([AEEA-AEEA-γGlu-C18 diacid])LATLPRTETGSGSP-NH2 [Compound 53] | 10.84 | 11.49 | 10.12 | 11.49 | 0.8 |  | 

More lines, main results first:

pEC50 [1, 4] | pEC50 [1, 5] | pEC50 [2, 6] | pEC50 [2, 7] | Purity loss per week at 37° C. [3] [%] | Substance | pEC50 [1, 8] | pEC50 [2, 9]
10.82 | 11.63 | 9.73 | 11.49 | 0.7 | Y[Aib]EGTFTSDYSILLEEQAAREFIEWLLAGGPSSGEASHLSTAQTQRLSAELHK([AEEA-AEEA-γGlu-C18 diacid])LATLPRTETGSGSP-NH2 [Compound 50] |  | 
10.98 | 11.46 | 10.77 | 11.74 | 3.5 | H[Aib]HGTFTSDYSILLEEQAAREFIEWLLAGGPSSGAGQAPGQAPGASHLSTAQTQRLSAK([AEEA-AEEA-γGlu-C18 diacid])LHRLATLPRTETGSGSP-NH2 [Compound 78] |  | 
10.00 | 11.69 | 9.96 | 11.72 | 3.3 | H[Aib]HGTFTSDYSILLEEQAAREFIEWLLAGGPSK([AEEA-AEEA-γGlu-C18 diacid])GEASQLSTAALGRLSAELHQLATLPRTETGSGSP-NH2 [Compound 64] |  | 
11.03 | 11.49 | 10.54 | 11.65 | 2.8 | H[Aib]HGTFTSDYSILLEEQAAREFIEWLLAGGPSSGAGQAPGQAPGASHLSTAQTQRLSAELHRLK([AEEA-AEEA-γGlu-C18 diacid])TLPRTETGSGSP-NH2 [Compound 91] |  | 
10.61 | 11.33 | 10.27 | 11.45 | 1.3 | Y[Aib]EGTFTSDYSILLEEQAAREFIEWLLAGGPSSGEASHLSTAQTQRLSAK([AEEA-AEEA-γGlu-C18 diacid])LHRLATLPRTETGSGSP-NH2 [Compound 79] |  | 
11.07 | 11.60 | 10.18 | 11.65 | 2.8 | H[Aib]HGTFTSDYSILLEEQAAREFIEWLLAGGPSSGAGQAPGQAPLASHLSTAQTQRLSAELHK([AEEA-AEEA-γGlu-C18 diacid])LATLPRTETGSGSP-NH2 [Compound 93] |  | 
11.12 | 11.73 | 9.87 | 11.54 |  | Y[Aib]EGTFTSDYSILLEEQAAREFIEWLLAGGPSSGAGQAPGQAPLASHLSTAQTQRLSAELHK([AEEA-AEEA-γGlu-C18 diacid])LATLPRTETGSGSP-NH2 [compound 58] |  | 
10.69 | 11.40 | 10.21 | 11.49 | 0.8 | Y[Aib]EGTFTSDYSILLEEQAAREFIEWLLAGGPSSGEASHLSTAQTQRLSAELHRLK([AEEA-AEEA-γGlu-C18 diacid])TLPRTETGSGSP-NH2 [Compound 80] |  | 
9.45 | 11.49 | 10.09 | 11.30 | 3.8 | H[Aib]HGTFTSDYSILLEEQAAREFIEWLLAGGPSK([AEEA-AEEA-γGlu-C18 diacid])GAPPPSGGGEASELSTAALGRLSAELHELATLPRTETGSGSP-NH2 [Compound 15] |  | 
9.65 | 11.71 | 9.86 | 11.42 |  | H[Aib]HGTFTSDYSILLEEQAAREFIEWLLAGGPSK([AEEA-AEEA-γGlu-C18 diacid])GEASHLSTAQTARLSAELHELATLPRTETGSGSP-NH2 [Compound 36] |  | 
10.43 | 11.30 | 10.47 | 11.29 | 4.2 | H[Aib]HGTFTSDYSILLEEQAAREFIEWLLAGGPSK([AEEA-AEEA-γGlu-C16 diacid])GEASELSTAALGRLSAELHRLATLPRTETGSGSP-NH2 [Compound 17] |  | 
10.20 | 11.80 | 10.15 | 11.54 | 3.7 | H[Aib]HGTFTSDYSILLEEQAAREFIEWLLAGGPSK([AEEA-AEEA-γGlu-C18 diacid])GEASQLSTAALGRLSAELHTLATLPRTETGSGSP-NH2 [Compound 63] |  | 
10.23 | 11.58 | 10.26 | 11.21 | 5.6 | H[Aib]HGTFTSDYSILLEEQAAREFIEWLLAGGPSK([AEEA-AEEA-γGlu-C16 diacid])GAPPPSGGGEASELSTAALGRLSAELHELATLPRTETGSGSP-NH2 [Compound 12] |  | 
